The record followed here is patent US8680159B2, “Bradykinin 1 receptor modulating compounds” (Gruenenthal GmbH, priority 2010, dated 2014).

As a reminder, the inhibition is the relative decrease from the control value, in per cent.

The target in the first test is T1, B1R receptor of the rat (CHO K1 cells stably transfected with the B1R gene of the rat) (Rattus norvegicus, UniProt P97583).
T1 construct: expressed in transfected cells; host or cells: CHO K1 cells (Chinese hamster ovary), stably transfected
T1 sequence (P97583 1-337): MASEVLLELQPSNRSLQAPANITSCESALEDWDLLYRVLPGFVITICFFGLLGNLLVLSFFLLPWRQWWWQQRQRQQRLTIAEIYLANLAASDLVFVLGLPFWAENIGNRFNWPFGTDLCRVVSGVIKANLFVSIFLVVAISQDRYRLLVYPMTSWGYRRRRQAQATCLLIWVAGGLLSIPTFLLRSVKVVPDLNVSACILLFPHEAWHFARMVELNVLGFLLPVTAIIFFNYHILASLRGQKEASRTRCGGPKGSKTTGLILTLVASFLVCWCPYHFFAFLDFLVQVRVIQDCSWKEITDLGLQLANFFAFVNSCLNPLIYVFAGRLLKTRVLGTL
In words: Functional study on the bradykinin receptor 1 (B1R), Ca2+ fluorescence (Fluo-4) FLIPR/Novostar assay, rB1R cells. The note with it: 10 μM. The format is cell-based. The procedure, abridged:
(§1)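 Ca2+ influx (Fluo-4, peak fluorescence, λex 488/λem 540 nm) was measured in CHO K1 lines expressing rat or human B1R. After a 10 μM test-compound pre-addition scoring % activation, cells received EC80 agonist: Des-Arg9-bradykinin for rat, Lys-Des-Arg9-bradykinin for human. Antagonism was expressed as % of maximum inhibition, with IC50 from varied concentrations.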
`CN(C(=O)c1ccc2c(c1)C(NC(=O)c1cc(F)ccc1Cl)CCC2)C1CCN(c2ccncc2)CC1` (centres unmarked) [CC_H-04, 8-[(2-Chloro-5-fluoro-benzoyl)amino]-N-methyl-N-(1-pyridin-4-yl-piperidin-4-yl)-5,6,7,8-tetrahydro-naphthalene-2-carboxylic acid amide]: the “% Inhibition (r-B1R) at 10 μM” value came out at 104%.

The same test, now with this note: CHO-K1, 10 μM, read-out: % Inhibition (r-B1R) at 10 μM.
For the molecule `CN(C(=O)c1ccc2c(c1)C(NC(=O)c1cccc(Cl)c1Cl)CCC2)C1CCN(c2ccncc2)CC1` (centres unmarked) [CC_H-03, 8-[(2,3-Dichloro-benzoyl)amino]-N-methyl-N-(1-pyridin-4-yl-piperidin-4-yl)-5,6,7,8-tetrahydro-naphthalene-2-carboxylic acid amide], the inhibition at 10 µM worked out at 103%.

On to `CN(C(=O)c1ccc2c(c1)C(NC(=O)C1CCCCC1)CCC2)C1CCN(c2ccncc2)CC1` (centres unmarked) [CC_H-05, 8-(Cyclohexanecarbonylamino)-N-methyl-N-(1-pyridin-4-yl-piperidin-4-yl)-5,6,7,8-tetrahydro-naphthalene-2-carboxylic acid amide], for which the inhibition at 10 µM came out at 103%.

Take `CN(C(=O)c1ccc2c(c1)C(NC(=O)CCC1CCCC1)CCC2)C1CCN(c2ccncc2)CC1` (centres unmarked) [CC_H-06, 8-(3-Cyclopentyl-propanoylamino)-N-methyl-N-(1-pyridin-4-yl-piperidin-4-yl)-5,6,7,8-tetrahydro-naphthalene-2-carboxylic acid amide]: the inhibition at 10 µM stood at 104%.

Another test concerns the target T2, human B1R receptor (CHO K1 cells stably transfected with the human B1R gene) (Homo sapiens, UniProt P46663).
T2 construct: expressed in transfected cells; host or cells: CHO K1 cells (Chinese hamster ovary), stably transfected
T2 sequence (P46663 1-353): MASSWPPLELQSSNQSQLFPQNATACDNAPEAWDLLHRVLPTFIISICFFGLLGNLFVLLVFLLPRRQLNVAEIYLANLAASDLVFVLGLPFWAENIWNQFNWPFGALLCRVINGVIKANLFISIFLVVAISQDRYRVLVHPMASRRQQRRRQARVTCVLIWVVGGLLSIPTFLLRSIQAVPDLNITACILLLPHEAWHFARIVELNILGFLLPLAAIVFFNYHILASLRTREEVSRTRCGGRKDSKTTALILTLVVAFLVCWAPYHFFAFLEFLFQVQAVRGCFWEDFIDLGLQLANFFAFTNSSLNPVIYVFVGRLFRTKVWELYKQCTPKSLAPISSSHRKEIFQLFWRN
Kind of test: Functional study on the bradykinin receptor 1 (B1R), Ca2+ fluorescence (Fluo-4) FLIPR/Novostar assay, hB1R cells. It is filed as cell-based. The note with it: CHO-K1, read-out: % Inhibition (h-B1R) at 10 μM. The procedure, abridged:
as §1
Consider `CN(C(=O)c1ccc2c(c1)C(NC(=O)c1cccc(Cl)c1Cl)CCC2)C1CCN(c2ccncc2)CC1` (centres unmarked) [CC_H-03, 8-[(2,3-Dichloro-benzoyl)amino]-N-methyl-N-(1-pyridin-4-yl-piperidin-4-yl)-5,6,7,8-tetrahydro-naphthalene-2-carboxylic acid amide], for which the inhibition at 10 µM came out at 99%.

On to `CN(C(=O)c1ccc2c(c1)C(NC(=O)c1cc(F)ccc1Cl)CCC2)C1CCN(c2ccncc2)CC1` (centres unmarked) [CC_H-04, 8-[(2-Chloro-5-fluoro-benzoyl)amino]-N-methyl-N-(1-pyridin-4-yl-piperidin-4-yl)-5,6,7,8-tetrahydro-naphthalene-2-carboxylic acid amide], for which the inhibition at 10 µM came out at 99%.

For the molecule `CN(C(=O)c1ccc2c(c1)C(NC(=O)C1CCCCC1)CCC2)C1CCN(c2ccncc2)CC1` (centres unmarked) [CC_H-05, 8-(Cyclohexanecarbonylamino)-N-methyl-N-(1-pyridin-4-yl-piperidin-4-yl)-5,6,7,8-tetrahydro-naphthalene-2-carboxylic acid amide], the inhibition at 10 µM was determined as 98%.

In the case of `CN(C(=O)c1ccc2c(c1)C(NC(=O)CCC1CCCC1)CCC2)C1CCN(c2ccncc2)CC1` (centres unmarked) [CC_H-06, 8-(3-Cyclopentyl-propanoylamino)-N-methyl-N-(1-pyridin-4-yl-piperidin-4-yl)-5,6,7,8-tetrahydro-naphthalene-2-carboxylic acid amide], the inhibition at 10 µM amounted to 100%.

Staying with this test, now noted: CHO-K1, read-out: % inhibition (human B1R) at 10 μM.
Turning to `Cc1cc(N2CCC(N(C)C(=O)c3ccc4c(c3)[C@H](N(C(=O)c3cc(F)ccc3Cl)C(C)C)CC4)CC2)nc(C)n1` [Example H-212, (3R)-3-[(2-Chloro-5-fluoro-benzoyl)-isopropyl-amino]-N-[1-(2,6-dimethyl-pyrimidin-4-yl)-piperidin-4-yl]-N-methyl-2,3-dihydro-1H-indene-5-carboxylic acid amide], the inhibition at 10 µM was 82%.

In the case of `Cc1cc(N2CCC(N(C)C(=O)c3cc4c(cc3F)CC[C@H]4NC(=O)c3ccccc3Cl)CC2)nc(C)n1` [Example H-213, (3R)-3-[(2-Chloro-benzoyl)amino]-N-[1-(2,6-dimethyl-pyrimidin-4-yl)-piperidin-4-yl]-6-fluoro-N-methyl-2,3-dihydro-1H-indene-5-carboxylic acid amide], the inhibition at 10 µM is 100%.

Take `CNc1nccc(N2CCC(N(C)C(=O)c3ccc4c(c3)[C@H](NC(=O)c3ccccc3Cl)CC4)CC2)n1` [Example H-214, (3R)-3-[(2-Chloro-benzoyl)amino]-N-methyl-N-[1-(2-methylamino-pyrimidin-4-yl)-piperidin-4-yl]-2,3-dihydro-1H-indene-5-carboxylic acid amide]: the inhibition at 10 µM turned out to be 100%.

For `Cc1cc(N2CCC(CCNC(=O)c3ccc4c(c3)[C@H](NC(=O)c3ccccc3Cl)CC4)CC2)nc(C)n1` [Example H-215, (3R)-3-[(2-Chloro-benzoyl)amino]-N-[2-[1-(2,6-dimethyl-pyrimidin-4-yl)-piperidin-4-yl]-ethyl]-2,3-dihydro-1H-indene-5-carboxylic acid amide], the inhibition at 10 µM was 95%.

Consider `CCN(C(=O)c1ccc2c(c1)[C@H](NC(=O)c1ccccc1Cl)CC2)C1CCN(c2cc(C)nc(C)n2)CC1` [Example H-216, (3R)-3-[(2-Chloro-benzoyl)amino]-N-[1-(2,6-dimethyl-pyrimidin-4-yl)-piperidin-4-yl]-N-ethyl-2,3-dihydro-1H-indene-5-carboxylic acid amide], for which the inhibition at 10 µM was 98%.

In the case of `CN(C(=O)c1ccc2c(c1)[C@H](NC(=O)c1ccccc1Cl)CC2)C1CCN(c2cc[nH]c(=O)c2)CC1` [Example H-219, (3R)-3-[(2-Chloro-benzoyl)amino]-N-methyl-N-[1-(2-oxo-1H-pyridin-4-yl)-piperidin-4-yl]-2,3-dihydro-1H-indene-5-carboxylic acid amide], the inhibition at 10 µM was determined as 79%.

Regarding `CCN(C(=O)c1c(F)cccc1Cl)[C@@H]1CCc2ccc(C(=O)N(C)C3CCN(c4ccncc4)CC3)cc21` [Example H-220], the inhibition at 10 µM is 99%.

Turning to `CCN(C(=O)c1cc(F)ccc1Cl)[C@@H]1CCc2ccc(C(=O)N(C)C3CCN(c4ccncc4)CC3)cc21` [Example H-221, (3R)-3-[(2-Chloro-5-fluoro-benzoyl)-ethyl-amino]-N-methyl-N-(1-pyridin-4-yl-pipendin-4-yl)-2,3-dihydro-1H-indene-5-carboxylic acid amide], the inhibition at 10 µM turned out to be 99%.

Take `Cc1cc(N2CCC(N(C)C(=O)c3ccc4c(c3)[C@H](NC(=O)CC(C)C(C)C)CC4)CC2)ccn1` (stereo partly drawn) [Example H-222, (3R)-3-(3,4-Dimethyl-pentanoylamino)-N-methyl-N-[1-(2-methyl-pyridin-4-yl)-piperidin-4-yl]-2,3-dihydro-1H-indene-5-carboxylic acid amide]: the inhibition at 10 µM was found to be 99%.

On to `Cc1cc(N2CCC(N(C)C(=O)c3ccc4c(c3)[C@H](NC(=O)CC(C)C(C)C)CC4)CC2)nc(C)n1` (stereo partly drawn) [Example H-223, (3R)-3-(3,4-Dimethyl-pentanoylamino)-N-[1-(2,6-dimethyl-pyrimidin-4-yl)-piperidin-4-y]-N-methyl-2,3-dihydro-1H-indene-5-carboxylic acid amide], for which the inhibition at 10 µM is 96%.

For `COc1cc(C(=O)N[C@@H]2CCc3ccc(C(=O)N(C)C4CCN(c5cc(C)nc(C)n5)CC4)cc32)on1` [Example H-224, N-[(1R)-6-[[1-(2,6-Dimethyl-pyrimidin-4-yl)-piperidin-4-yl]-methyl-carbamoyl]-2,3-dihydro-1H-inden-1-yl]-3-methoxy-isoxazole-5-carboxylic acid amide], the inhibition at 10 µM is 98%.

For the molecule `COc1cc(C(=O)N[C@@H]2CCc3ccc(C(=O)N(C)C4CCN(c5ccnc(C)c5)CC4)cc32)on1` [Example H-225, 3-Methoxy-N-[(1R)-6-[methyl-[1-(2-methyl-pyridin-4-yl)-piperidin-4-yl]-carbamoyl]-2,3-dihydro-1H-inden-1-yl]-isoxazole-5-carboxylic acid amide], the inhibition at 10 µM worked out at 100%.

As to `Cc1cc(N2CCC(N(C)C(=O)c3ccc4c(c3)[C@H](NC(=O)C3CCCC3)CC4)CC2)nc(C)n1` [Example H-226, (3R)-3-(Cyclopentanecarbonylamino)-N-[1-(2,6-dimethyl-pyrimidin-4-yl)-piperidin-4-yl]-N-methyl-2,3-dihydro-1H-indene-5-carboxylic acid amide], the inhibition at 10 µM was found to be 99%.

On to `Cc1cc(N2CCC(N(C)C(=O)c3ccc4c(c3)[C@H](NC(=O)C3CCCC3)CC4)CC2)ccn1` [Example H-227, (3R)-3-(Cyclopentanecarbonylamino)-N-methyl-N-[1-(2-methyl-pyridin-4-yl)-piperidin-4-yl]-2,3-dihydro-1H-indene-5-carboxylic acid amide], for which the inhibition at 10 µM is 100%.

`CN(C)c1nccc(N2CCC(N(C)C(=O)c3ccc4c(c3)[C@H](NC(=O)C3CCCC3)CC4)CC2)n1` [Example H-228, (3R)-3-(Cyclopentanecarbonylamino)-N-[1-(2-dimethylamino-pyrimidin-4-yl)-piperidin-4-yl]-N-methyl-2,3-dihydro-1H-indene-5-carboxylic acid amide]: the inhibition at 10 µM was found to be 96%.

Take `CCN(C(=O)C1CCCC1)[C@@H]1CCc2ccc(C(=O)N(C)C3CCN(c4cc(C)nc(C)n4)CC3)cc21` [Example H-229, (3R)-3-(Cyclopentanecarbonyl-ethyl-amino)-N-[1-(2,6-dimethyl-pyrimidin-4-yl)-piperidin-4-yl]-N-methyl-2,3-dihydro-1H-indene-5-carboxylic acid amide]: the inhibition at 10 µM was determined as 98%.

On to `Cc1cc(N2CCC(N(C)C(=O)c3ccc4c(c3)[C@H](N(C)C(=O)C3CCCC3)CC4)CC2)nc(C)n1` [Example H-230, (3R)-3-(Cyclopentanecarbonyl-methyl-amino)-N-[1-(2,6-dimethyl-pyrimidin-4-yl)-piperidin-4-yl]-N-methyl-2,3-dihydro-1H-indene-5-carboxylic acid amide], for which the inhibition at 10 µM was 98%.

For the molecule `CN(C(=O)c1ccc2c(c1)[C@H](NC(=O)c1ccccc1Cl)CC2)C1CCN(c2ccnc(N)n2)CC1` [Example H-244, (3R)-N-[1-(2-Amino-pyrimidin-4-yl)-piperidin-4-yl]-3-[(2-chloro-benzoyl)amino]-N-methyl-2,3-dihydro-1H-indene-5-carboxylic acid amide], the inhibition at 10 µM stood at 100%.
